In patent US20250099466A1 (BRISTOL-MYERS SQUIBB COMPANY, priority 2021, published 2025):

Tests used:
Half-life of milvexian = details: human, in vivo
aPTT = aPTT prolongation in healthy volunteers; assay type: in vivo, human; details: 50-mg once daily dose, for about 24 hours
[1] = system: subjects undergoing elective total knee replacement surgery; assay: Phase 2 study of milvexian versus enoxaparin after elective total knee replacement: venous thromboembolism events; assay type: in vivo, human; details: for Major VTE % / Major VTE n / Total VTE % / Total VTE RR vs. Enoxaparin / Total VTE n: mITT, Day 14; for Asymptomatic distal DVT % / Asymptomatic distal DVT n / Asymptomatic proximal DVT % / Asymptomatic proximal DVT n / Death n / Distal DVT % / Distal DVT n / Non-fatal PE n / Proximal DVT % / Proximal DVT n / Symptomatic distal DVT n / Symptomatic proximal DVT n / Non-fatal PE % / Symptomatic distal DVT %: through day 14; for incidence of segments with the most severe DVT severity score of 3: subjects with DVT on venography
Description: [table] […] The study used a prospective, randomized, open-label, blinded endpoint (PROBE) design. […] The enoxaparin control arm likewise completed its pre-specified randomization of 300 subjects. […] FIG. 1 provides the study design, including number of subjects randomized into each study arm. […] An adaptive design was used to optimize patient recruitment for the dose-response evaluation. The number of dose regimens, the option to implement additional once daily dosing regimens, and the randomization ratio were based on the results of the periodic reviews and interim analysis. […] Randomization was performed postoperatively using a centralized interactive web-based response system and was stratified by geographic region of the study centers. […] Enoxaparin was given subcutaneously at a dose of 40 mg once daily and was started either the evening before or 12 to 24 hours after surgery. […] The primary efficacy outcome was venous thromboembolism, defined as the composite of asymptomatic deep-vein thrombosis (detected by mandatory unilateral venography performed 10 to 14 days after surgery), confirmed symptomatic venous thromboembolism (symptomatic deep-vein thrombosis of the leg or nonfatal pulmonary embolism), or death. […] Factor XI antisense oligonucleotide for prevention of venous thrombosis. N Engl J Med 2015; 372:232-40; Fuji et al., A dose-ranging study evaluating the oral factor Xa inhibitor edoxaban for the prevention of venous thromboembolism in patients undergoing total knee arthroplasty. J Thromb Haemost 2010; 8:2458-68). The major secondary efficacy outcomes were: (a) proximal deep-vein thrombosis (symptomatic or asymptomatic), (b) distal deep-vein thrombosis (symptomatic or asymptomatic) (c) nonfatal pulmonary embolism, and (d) death. An exploratory efficacy outcome was the extent of venous thrombosis on venography, which was assessed by the adjudication committee using predefined categories. […] Statistics in Medicine 2014; 33:1646-61). […] Venograms, assessed by independent blinded adjucators, were used to identify, and to assign DVT severity scores to, subjects with DVT. […] For each evaluated segment, a severity score was assigned depending on the presence and, if present, extension of the clot in the segment of the vein. Severity scores, on a scale of 0-3, were assigned as follows: 0=no clot; 1=less than ⅓; 2=greater than or equal to ⅓ but less than ⅔; and 3=greater than ⅔ the length of the vein segment.

aPTT, TT, and PT = assay: Ex vivo aPTT, TT and PT in ECAT rabbits; design: species or system rabbit
Procedure: Integrated blood flow, thrombus weight, aPTT (activated partial thromboplastin time), TT (thrombin time), and PT (prothrombin time) were also measured.

[2] = milvexian all regimens combined
[3] = milvexian combined BID regimens

C[C@@H]1CCC[C@H](n2cnc(-c3cc(Cl)ccc3-n3cc(Cl)nn3)cc2=O)c2cc(ccn2)-c2c(cnn2C(F)F)NC1=O [milvexian, (5R,9S)-9-(4-(5-chloro-2-(4-chloro-1H-1,2,3-triazol-1-yl)phenyl)-6-oxopyrimidin-1(6H)-yl)-21-(difluoromethyl)-5-methyl-21H-3-aza-1(4,2)-pyridina-2(5,4)-pyrazolacyclononaphan-4-one]
half-life (Half-life of milvexian): ~11 h | prolongation of aPTT (aPTT): 1.5 fold | Major VTE % ([1]; milvexian 25 mg BID): 0.8% | Major VTE n ([1]; milvexian 25 mg BID): 1 n | Total VTE % ([1]; milvexian 25 mg BID): 21.0% | Total VTE RR vs. Enoxaparin ([1]; milvexian 25 mg BID): 0.97 | Total VTE n ([1]; milvexian 25 mg BID): 27 n | Major VTE % ([1]; milvexian 25 mg BID, listed as Milvexian): (0.8%) | Asymptomatic distal DVT % ([1]; milvexian 25 mg BID): 20.2% | Asymptomatic distal DVT n ([1]; milvexian 25 mg BID): 26 n | Asymptomatic proximal DVT % ([1]; milvexian 25 mg BID): 0.8% | Asymptomatic proximal DVT n ([1]; milvexian 25 mg BID): 1 n | Death n ([1]; milvexian 25 mg BID): 0 n | Distal DVT % ([1]; milvexian 25 mg BID): 20.2% | Distal DVT n ([1]; milvexian 25 mg BID): 26 n | Non-fatal PE n ([1]; milvexian 25 mg BID): 0 n | Proximal DVT % ([1]; milvexian 25 mg BID): 0.8% | Proximal DVT n ([1]; milvexian 25 mg BID): 1 n | Symptomatic distal DVT n ([1]; milvexian 25 mg BID): 0 n | Symptomatic proximal DVT n ([1]; milvexian 25 mg BID): 0 n | Major VTE n ([1]; milvexian 25 mg once daily): 0 n | Total VTE % ([1]; milvexian 25 mg once daily): (25.0%) | Total VTE RR vs. Enoxaparin ([1]; milvexian 25 mg once daily): 1.00 | Total VTE n ([1]; milvexian 25 mg once daily): 7 n | Major VTE % ([1]; milvexian 50 mg BID): 0.8% | Major VTE n ([1]; milvexian 50 mg BID): 1 n | Total VTE % ([1]; milvexian 50 mg BID): 11.3% | Total VTE RR vs. Enoxaparin ([1]; milvexian 50 mg BID): 0.53 | Total VTE n ([1]; milvexian 50 mg BID): 14 n | Major VTE % ([1]; milvexian 50 mg BID, listed as Milvexian): (0.8%) | incidence of segments with the most severe DVT severity score of 3 ([1]; milvexian 50 mg BID): 0% | Asymptomatic distal DVT % ([1]; milvexian 50 mg BID): 10.5% | Asymptomatic distal DVT n ([1]; milvexian 50 mg BID): 13 n | Asymptomatic proximal DVT n ([1]; milvexian 50 mg BID): 0 n | Death n ([1]; milvexian 50 mg BID): 0 n | Distal DVT % ([1]; milvexian 50 mg BID): 10.5% | Distal DVT n ([1]; milvexian 50 mg BID): 13 n | Non-fatal PE % ([1]; milvexian 50 mg BID): 0.8% | Non-fatal PE n ([1]; milvexian 50 mg BID): 1 n | Proximal DVT n ([1]; milvexian 50 mg BID): 0 n | Symptomatic distal DVT n ([1]; milvexian 50 mg BID): 0 n | Symptomatic proximal DVT n ([1]; milvexian 50 mg BID): 0 n | Major VTE % ([1]; milvexian 50 mg once daily): 1.6% | Major VTE n ([1]; milvexian 50 mg once daily): 2 n | Total VTE % ([1]; milvexian 50 mg once daily): (23.6%) | Total VTE RR vs. Enoxaparin ([1]; milvexian 50 mg once daily): 1.15 | Total VTE n ([1]; milvexian 50 mg once daily): 30 n | Major VTE % ([1]; milvexian 50 mg once daily, listed as Milvexian): (1.6%) | Major VTE % ([1]; milvexian 100 mg BID): 1.5% | Major VTE n ([1]; milvexian 100 mg BID): 2 n | Total VTE % ([1]; milvexian 100 mg BID): 9.0% | Total VTE RR vs. Enoxaparin ([1]; milvexian 100 mg BID): 0.42 | Total VTE n ([1]; milvexian 100 mg BID): 12 n | Major VTE % ([1]; milvexian 100 mg BID, listed as Milvexian): (1.5%) | incidence of segments with the most severe DVT severity score of 3 ([1]; milvexian 100 mg BID): 1.52% | Asymptomatic distal DVT % ([1]; milvexian 100 mg BID): 7.5% | Asymptomatic distal DVT n ([1]; milvexian 100 mg BID): 10 n | Asymptomatic proximal DVT % ([1]; milvexian 100 mg BID): 0.7% | Asymptomatic proximal DVT n ([1]; milvexian 100 mg BID): 1 n | Death n ([1]; milvexian 100 mg BID): 0 n | Distal DVT % ([1]; milvexian 100 mg BID): 7.5% | Distal DVT n ([1]; milvexian 100 mg BID): 10 n | Non-fatal PE % ([1]; milvexian 100 mg BID): 0.7% | Non-fatal PE n ([1]; milvexian 100 mg BID): 1 n | Proximal DVT % ([1]; milvexian 100 mg BID): 0.7% | Proximal DVT n ([1]; milvexian 100 mg BID): 1 n | Symptomatic distal DVT % ([1]; milvexian 100 mg BID): 0.7% | Symptomatic distal DVT n ([1]; milvexian 100 mg BID): 1 n | Symptomatic proximal DVT n ([1]; milvexian 100 mg BID): 0 n | Major VTE n ([1]; milvexian 200 mg BID): 0 n | Total VTE % ([1]; milvexian 200 mg BID): 7.6% | Total VTE RR vs. Enoxaparin ([1]; milvexian 200 mg BID): 0.37 | Total VTE n ([1]; milvexian 200 mg BID): 10 n | incidence of segments with the most severe DVT severity score of 3 ([1]; milvexian 200 mg BID): 2.73% | Asymptomatic distal DVT % ([1]; milvexian 200 mg BID): 7.6% | Asymptomatic distal DVT n ([1]; milvexian 200 mg BID): 10 n | Asymptomatic proximal DVT n ([1]; milvexian 200 mg BID): 0 n | Death n ([1]; milvexian 200 mg BID): 0 n | Distal DVT % ([1]; milvexian 200 mg BID): 7.6% | Distal DVT n ([1]; milvexian 200 mg BID): 10 n | Non-fatal PE n ([1]; milvexian 200 mg BID): 0 n | Proximal DVT n ([1]; milvexian 200 mg BID): 0 n | Symptomatic distal DVT n ([1]; milvexian 200 mg BID): 0 n | Symptomatic proximal DVT n ([1]; milvexian 200 mg BID): 0 n | Major VTE n ([1]; milvexian 200 mg once daily): 0 n | Total VTE % ([1]; milvexian 200 mg once daily): (6.5%) | Total VTE RR vs. Enoxaparin ([1]; milvexian 200 mg once daily): 0.30 | Total VTE n ([1]; milvexian 200 mg once daily): 8 n | incidence of segments with the most severe DVT severity score of 3 ([1]; milvexian 200 mg once daily): 0% | Total VTE % [1, 2]: 13.6% | Total VTE n [1, 2]: 108 n | reduction of total VTE compared to enoxaparin ([1]; milvexian at total daily doses of ≥200 mg): > 50% | Total VTE % [1, 3]: 12.2% | Total VTE n [1, 3]: 63 n | Asymptomatic distal DVT % [1, 3]: 11.4% | Asymptomatic distal DVT n [1, 3]: 59 n | Asymptomatic proximal DVT % [1, 3]: 0.4% | Asymptomatic proximal DVT n [1, 3]: 2 n | Death n [1, 3]: 0 n | Distal DVT % [1, 3]: 11.4% | Distal DVT n [1, 3]: 59 n | Non-fatal PE % [1, 3]: 0.4% | Non-fatal PE n [1, 3]: 2 n | Proximal DVT % [1, 3]: 0.4% | Proximal DVT n [1, 3]: 2 n | Symptomatic distal DVT % [1, 3]: 0.2% | Symptomatic distal DVT n [1, 3]: 1 n | Symptomatic proximal DVT n [1, 3]: 0 n | ex vivo PT (aPTT, TT, and PT; prevention ECAT rabbits): did not alter TT and PT significantly | ex vivo TT (aPTT, TT, and PT; prevention ECAT rabbits): did not alter TT and PT significantly | ex vivo aPTT (aPTT, TT, and PT; prevention ECAT rabbits): elevated aPTT significantly at the highest 2 doses | prolongation of aPTT needed to achieve 50% thrombus weight reduction (aPTT, TT, and PT; rabbit ECAT): 1.6 fold
